The values below come from PubChem BioAssay AID2305 (GlaxoSmithKline (GSK), 2010).

For the test, the system named is P. falciparum 3D7 growth, pLDH absorbance. Nature of the test: P. falciparum 3D7 growth inhibition, dose response, strain 3D7 (AID 2305).

The term IC50 denotes the concentration that gives 50% inhibition. Read a high IC50 as lower potency.

Regarding `COc1ccc(OCCCN2CCN(CC(c3ccc(F)cc3)N3CCN(C(C)C)CC3)CC2)c2ccccc12` (centres undefined), the IC50 was found to be 0.65 µM.
Take `O=C(NCC1CCN(CCN2CCc3ccc4c(c3C2)OCO4)CC1)c1ccc(-c2ccc(C(F)(F)F)cc2)cc1`: the IC50 turned out to be 0.86 µM.
The molecule `O=C(Nc1cccc(CN2CCN(C(=O)c3cccs3)CC2)c1)c1cccs1` showed an IC50 of 0.78 µM.
`O=C1CC(C(=O)O)CC(=O)N1` came in with an IC50 of 0.76 µM.
Take `CSC1=NC2(CC(c3cccc(C)c3)c3cc(Cl)c(O)cc3O2)CC(C)(C)N1` (centres undefined): the half-inhibitory concentration (IC50) turned out to be 0.88 µM.
Then `CO/C(=C\C=C\c1cc2cc(Cl)c(Cl)cc2[nH]1)C(=O)NCCCN1CCC(c2ccccc2)CC1`, with 0.91 µM; and `COc1cccc2cc(C(=O)N[C@@H](CC(C)C)C(=O)N[C@H](/C=N/NC(=O)Cc3cccnc3)CCc3ccccc3)oc12`, with 0.95 µM.
In turn, `CCn1ccc2c(N3CCCC3=O)cc(C(=O)N[C@@H](Cc3ccccc3)[C@H](O)CNCc3cccc(OC)c3)cc21` displayed an IC50 of 0.59 µM.
Then `COc1ccc(NS(=O)(=O)c2ccccc2Br)cc1N1CCN(C)CC1`, with 0.97 µM; and `CC(C)C[C@H](NC(=O)[C@H](Cc1ccccc1)NC(=O)CCN1C(=O)COc2ccc(C(=O)O)cc21)C(=O)NC(CC1CCCCC1)C(O)CC(=O)NCCCn1ccnc1` (some centres undefined), with 0.97 µM.
`Cn1nc(C(F)(F)F)cc1-c1ccc(C(=O)NC2CCC(CN3CCC(c4c[nH]c5ccccc45)CC3)CC2)s1` (centres undefined) had an IC50 of 0.56 µM. This IC50 is about 1.7-fold lower than that of the molecule before.
In turn, `Cc1noc(C)c1-c1cccc(CNCc2cccc(-c3ccc(-c4nc5c(C)cccc5[nH]4)cc3)c2)c1` yielded an IC50 of 0.19 µM. Compared with the last molecule, the IC50 is about 2.9-fold lower.
In turn, `CC(C)CCn1c(Sc2ccc(C#N)c([N+](=O)[O-])c2)nnc1-c1cccc(Cl)c1` came in with an IC50 of 0.67 µM.
Molecule `CCCCCc1cc(O)c2c(c1)OC(C)(C)CC2C1=CCN(Cc2ccccc2)CC1` (centres undefined) returned a half-inhibitory concentration (IC50) of 0.77 µM. The IC50 values of the last two molecules are within 1.5-fold of each other.
Turning to `Oc1ccc2[nH]cc(C3CCN(CCCCCCCCCN4CCC(c5c[nH]c6ccc(O)cc56)CC4)CC3)c2c1`, the IC50 turned out to be 0.31 µM. Compared with the last molecule, the IC50 is about 2.5-fold lower.
Regarding `O=c1cc(NCCCNCc2ccc3c(c2)OC(F)(F)O3)[nH]c2ccccc12`, the IC50 worked out at 0.77 µM. This IC50 lies about 2.5-fold higher than the previous one.
Then `CN1CCN(Cc2ccc(-c3ccc4c(Nc5cc(O)c(Cl)cc5F)ccnc4c3)o2)CC1`, with 0.11 µM.
For `Cc1ccc2[nH]c(C3CCCNC3)c(-c3ccncc3)c2c1` (centres undefined) the value was 1.23 µM; for `COc1ccc2nccc([C@@H](O)CN3CCC(NC(=O)c4cc5c(Cl)cc(Cl)cc5[nH]4)CC3)c2c1`, 0.23 µM; for `Cc1nnsc1C(=O)Nc1ccc(-c2cccc(-c3nc4ccc(F)cc4[nH]3)c2)cc1`, 0.77 µM.
For `CCCCCCCc1c(C)[nH]c2cc(OC)ccc2c1=O` the value was 0.06 µM; for `NC(N)=Nc1nc(-c2cccc(NC(=O)NCc3ccc(OC(F)(F)F)cc3)c2)cs1`, 0.7 µM; for `COc1ccc2nccc([C@@H](O)CN3CCC(NCc4ccc5c(n4)NCCC5)CC3)c2c1`, 0.74 µM.
As to `Cc1cc(N[C@@H](Cc2ccccc2)C(=O)NCCc2ccccc2)nc(NCCOc2ccccc2)n1`, the IC50 amounted to 1 µM.
`Cc1c(CNCCCNc2nc3ccncc3[nH]2)sc(Br)c1Br`: the IC50 amounted to 1.04 µM. The IC50 values of the last two molecules are within 1.5-fold of each other.
`CCn1ccc2c(N3CCCS3(=O)=O)cc(C(=O)N[C@@H](Cc3ccccc3)[C@H](O)CNC(C)(C)CCCC(C)C)cc21` had an IC50 of 0.49 µM.
As for `Cc1cc(C)n(Cc2ccc(C(=O)NCC3CCCCC3)cc2)n1`, the IC50 is 0.96 µM.
For `COc1cccc(NC(=O)N2CCOC(CCN3CCC4(CCc5ccccc54)CC3)(c3ccc(Cl)c(Cl)c3)C2)c1` (centres undefined) the value was 1.01 µM; for `Cc1cc2nc(-c3ccc(OCC(=O)NCc4cccc(C(F)(F)F)c4)cc3)[nH]c2cc1C`, 0.99 µM.
For `COc1cc(-c2nc(-c3ccccc3)c(-c3ccccc3)[nH]2)ccc1OCCN(C)C` the value was 0.3 µM.
Then `Cc1ccc(-c2cccc3c(NC(=O)Nc4ccc5nccc(N6CCN(C)CC6)c5c4)cccc23)cn1`, with 0.35 µM; and `CC[C@H]1CN2CC[C@@H]1C[C@H]2[C@H](O)c1cc(-c2ccc(F)cc2)nc2ccc(O)cc12`, with 0.14 µM; and `CC(C)C[C@@H](NC(=O)OC(C)(C)C)C(=O)Nc1ccc(Cc2ccc(NC(=O)[C@@H](CC(C)C)NC(=O)OC(C)(C)C)cc2)cc1`, with 0.21 µM.
In the case of `C=Cc1cc(OC)c2c(c1)c(=O)oc1c2cc(OC)c2c(O)ccc([C@H]3O[C@H]([C@@H](C)O)[C@H](O)[C@H]3O)c21`, the IC50 stood at 0.79 µM.
`CN(C)C(=O)CN1CCN(c2ncnc(N3CCc4c([nH]c5ccccc45)[C@@H]3c3ccc4c(c3)CCO4)n2)CC1` displayed an IC50 of 0.87 µM.
`COc1cccc(OC)c1OCCCOc1c(C)nc(N)nc1N` returned an IC50 of 0.46 µM.
As for `CCN(CC)C(=O)C(=O)c1c[nH]c2ccc(Cl)cc12`, the IC50 was 0.08 µM.
`COc1ccc(CCN(C)CCCCc2ccc(NC(=O)c3cccc4c(=O)c5cc(F)ccc5sc34)cc2)cc1OC` displayed an IC50 of 0.9 µM.
For `CCc1sc(N2CCN(C)CC2)nc1C(=O)NCCc1ccc(Cl)c(Cl)c1` the value was 1.18 µM; for `CCc1cn(CCOC)c2ccc(C(=O)N[C@@H](Cc3ccccc3)[C@H](O)CNC(C)(C)CCCC(C)C)cc12`, 0.57 µM.
For `CNC(=O)Cc1ccc(C(=O)Nc2cccc(-c3cccc(-c4nc5ccc(C(F)(F)F)cc5[nH]4)c3)c2)cc1` the value was 0.44 µM; for `Nc1c2ccccc2nc2cc([N+](=O)[O-])ccc12`, 0.87 µM.
Molecule `O=C(Nc1ccc(C(=O)N(Cc2ccc3c(c2)OCO3)C2CCCC2)cc1)c1cccs1` yielded an IC50 of 0.65 µM. This IC50 and that of the molecule before are within 1.5-fold of each other.
For `COCc1ccccc1C(=O)NCCOc1cc(C)cc(C)c1` the value was 0.35 µM; for `CCCCCCCNCc1c(O)ccc2c(CNCCCCCCC)c(O)ccc12`, 0.15 µM; for `Nc1ncc(-c2ccc(F)cc2)cc1-c1nc2ccc(Cl)cc2[nH]1`, 0.75 µM.
Turning to `O=C1OC(c2cc3ccccc3n2S(=O)(=O)c2ccccc2)(c2cc3ccccc3n2S(=O)(=O)c2ccccc2)c2ccccc21`, the IC50 worked out at 0.85 µM.
For `COc1cc(-c2cc3cc(Cl)c(Cl)cc3[nH]2)ccc1C(=O)NCCC1CCCN1C` (centres undefined) the value was 0.97 µM.
For `CC1(CCCCN2CC=C(c3c[nH]c4ccccc34)CC2)C(=O)Nc2ccccc21` (centres undefined) the value was 0.14 µM; for `O=C(NCCCCN1CCC(c2cccc3ccccc23)CC1)c1ccc(NC(=O)c2ccc(Cl)cc2)cc1`, 0.78 µM; for `Cc1ccc(-c2nc(Nc3ccncc3)c3ccccc3n2)s1`, 0.83 µM.
Then `Cc1ccc(C(c2nnnn2C2CCCC2)N(Cc2ccco2)Cc2ccccc2Cl)cc1` (centres undefined), with 0.96 µM; and `c1ccc(CNCCn2c(-c3ccc4c(c3)CCO4)nc3c(N4CCCC4)cccc32)cc1`, with 1.13 µM.
`COc1ccc(CN(C)CCCc2ccc(NC(=O)Cc3ccc4nc(-c5ccccc5)ccc4c3)cc2)cc1OC` had an IC50 of 0.53 µM.
The molecule `CC1N=C(N)N=C(N)N1OCc1ccccc1` (centres undefined) gave an IC50 of 0.03 µM.
Then `Cc1nc(-c2ccc(-c3ccc(C(=O)Nc4ccc5c(c4)C4(CCNCC4)CO5)cc3)c(C)c2)no1`, with 0.86 µM; and `COCCn1c(Sc2ccc(C#N)c([N+](=O)[O-])c2)nnc1-c1ccc(N(C)C)cc1`, with 1.03 µM; and `COc1ccc(-c2nc(NC(=O)Cc3ccc(OC)c(OC)c3)sc2C)cc1`, with 1.16 µM.
For `O=C(NC1CCCCC1)N(Cc1ccc(-c2ccc(CNC3CCCC3)cc2)cc1)C1CCN(Cc2ccccc2)CC1` the value was 0.78 µM.
As for `O=c1ccc(CNc2nc(NCCc3ccccc3)nc3ccc(Cl)cc23)c[nH]1`, the 50% inhibitory concentration (IC50) was determined as 0.78 µM. That is a sub-micromolar value.
For `CS(=O)(=O)c1cccc(-c2cnc(N)c3cc(-c4ccc5c(c4)OCO5)ccc23)c1`, the IC50 stood at 1.04 µM. This IC50 and that of the molecule before are within 1.5-fold of each other.
For the molecule `Nc1ncc(-c2cc3ccccc3o2)c(N)n1`, the IC50 worked out at 1.41 µM.
For `CCCNCc1ccc(-c2ccc(CN(C(=O)c3nn(-c4ccccc4)nc3C)C3CC3)cc2)nc1` the value was 0.21 µM.
In turn, `CN1CCCC(CN2CCN(Cc3cccc(-c4ccc(-c5nc6ccc(F)cc6[nH]5)cc4)c3)CC2)C1` (centres undefined) returned an IC50 of 0.14 µM.
In the case of `CCC[C@@H]1CCN[C@H]([C@H](O)c2ccnc3ccc(OC)cc23)C1`, the IC50 turned out to be 0.73 µM.
Then `COc1cc(F)c2nccc([C@@H](O)CN3CCC(NCc4cc5c(cc4F)OCCO5)CC3)c2c1`, with 0.68 µM; and `CC(=O)Nc1ccc(C(=O)NC2CCN(c3ccnc4cc(Cl)ccc34)CC2)cc1`, with 0.36 µM; and `Cc1ccc(NC(=O)Nc2ccc(S(=O)(=O)c3ccc(NC(=O)Nc4ccc(C)c(Cl)c4)cc3)cc2)cc1Cl`, with 0.75 µM.
For `Oc1ccc2ccccc2c1CNCCC1CCCCC1` the value was 0.17 µM.
For `CCc1ccc(-n2c(NC(=O)c3ccccc3)nc3ccc(S(=O)(=O)NC(C)C(C)C)cc32)cc1` (centres undefined) the value was 0.93 µM.
For `O=S(=O)(NCCN1CCCC1)c1ccc(-c2ccc(CNCc3ccc(F)cc3)cc2)s1`, the IC50 came to 0.84 µM.
For the molecule `C[C@@H]1CN(c2cnn(Cc3cccc(NC(=O)Nc4ccc(F)cc4[N+](=O)[O-])c3)c(=O)c2Cl)C[C@H](C)N1`, the IC50 was 0.87 µM. This IC50 and that of the molecule before are within 1.5-fold of each other.
The molecule `CCN(CC)S(=O)(=O)c1ccc(Cl)c(C(=O)Nc2ccc3nc(C)sc3c2)c1` gave an IC50 of 0.8 µM.
Turning to `COc1ccc2cc(C(c3nnnn3CC3CCCO3)N3CCc4ccccc43)c(=O)[nH]c2c1` (centres undefined), the IC50 worked out at 0.8 µM.
In the case of `O=C(NC1CCC(CN2CCC(c3c[nH]c4ccccc34)CC2)CC1)NC12CC3CC(CC(C3)C1)C2` (centres undefined), the IC50 was determined as 1.06 µM.
For `CC1(CCc2ccccc2)N=C(Nc2ccc(Cl)cc2)N=C(N)C1c1ccc(Cl)c(Cl)c1` (centres undefined) the value was 0.22 µM; for `COc1cccc(Nc2c(C(N)=O)cnc3ccc(-c4ccc(S(C)=O)cc4)cc23)c1` (centres undefined), 0.19 µM.
For `O=C(NCCN1CCOCC1)c1csc(C2CCCN(C(=O)c3ccc(O)c(-c4cc(Cl)cc(Cl)c4)c3)C2)n1` (centres undefined) the value was 1.03 µM; for `Cc1cc(NC(=O)c2cc(S(=O)(=O)N3CCCCC3)ccc2C)no1`, 0.72 µM.
Then `CS(=O)(=O)c1cccc(-c2cnc3[nH]cc(-c4ccc(C(=O)O)cc4)c3c2)c1`, with 0.34 µM.
Molecule `CCc1ccc(C2CCN(CCCCNC(=O)c3ccc(-c4ccc(C(F)(F)F)cc4)cc3)CC2)c(OCCO)c1` came in with an IC50 of 0.41 µM.
For `Cc1nc(-c2ccncc2)sc1C(=O)Nc1ccc(Cl)cc1C(=O)Nc1ccc(Cl)cc1` the value was 0.76 µM; for `CCCCNc1ccc(C(=O)NC2CCN(C[C@H](O)c3ccnc4ccc(OC)cc34)CC2)cc1`, 0.44 µM.
Regarding `CCOC(=O)c1ccc(NC(=O)Nc2cccc(-c3cccc(-c4nc5ccccc5[nH]4)c3)c2)cc1`, the half-maximal inhibitory concentration (IC50) amounted to 0.07 µM. This IC50 is about 6.3-fold lower than that of the molecule before.
